Results from ChEMBL document CHEMBL3632539, “Identification of Bidentate Salicylic Acid Inhibitors of PTP1B” (ACS Med Chem Lett, 2015).
Calls of active or inactive are those of the source. The calls are words filed in the database; no cut-off is given here.

Key:
CHO [1] = experiment: Cytotoxicity against CHO cells expressing human insulin receptor at 0.78 to 50 uM after 72 hrs by cell-titer blue assay; format: cell-based, Cricetulus griseus; settings: chinese hamster
CHO [2] = experiment: Inhibition of PTP1B in CHO cells assessed as increase in phosphorylation of transfected human insulin receptor by western blot analysis; format: cell-based; settings: Cricetulus griseus
[3] = target: T1, Tyrosine-protein phosphatase non-receptor type 2 (Homo sapiens) (UniProt P17706); experiment: Inhibition of GST-tagged TCPTP (unknown origin) at 10 uM by plate reader analysis using DiFMUP as substrate
T1 sequence (whole entry): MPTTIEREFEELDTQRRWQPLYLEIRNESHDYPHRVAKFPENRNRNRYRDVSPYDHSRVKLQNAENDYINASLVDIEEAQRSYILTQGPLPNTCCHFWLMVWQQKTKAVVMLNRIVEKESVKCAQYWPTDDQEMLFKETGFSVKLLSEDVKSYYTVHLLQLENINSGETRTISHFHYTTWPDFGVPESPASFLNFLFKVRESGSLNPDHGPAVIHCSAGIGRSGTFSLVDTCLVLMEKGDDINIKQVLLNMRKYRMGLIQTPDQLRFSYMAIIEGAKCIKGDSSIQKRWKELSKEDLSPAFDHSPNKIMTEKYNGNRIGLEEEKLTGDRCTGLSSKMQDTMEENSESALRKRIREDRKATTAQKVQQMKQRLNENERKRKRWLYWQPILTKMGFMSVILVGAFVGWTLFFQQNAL

[4] = target: T2, Tyrosine-protein phosphatase non-receptor type 1 (Homo sapiens) (UniProt P18031); experiment: Inhibition of GST-tagged PTP1B (unknown origin) at 10 uM by plate reader analysis using DiFMUP as substrate
T2 sequence (whole entry): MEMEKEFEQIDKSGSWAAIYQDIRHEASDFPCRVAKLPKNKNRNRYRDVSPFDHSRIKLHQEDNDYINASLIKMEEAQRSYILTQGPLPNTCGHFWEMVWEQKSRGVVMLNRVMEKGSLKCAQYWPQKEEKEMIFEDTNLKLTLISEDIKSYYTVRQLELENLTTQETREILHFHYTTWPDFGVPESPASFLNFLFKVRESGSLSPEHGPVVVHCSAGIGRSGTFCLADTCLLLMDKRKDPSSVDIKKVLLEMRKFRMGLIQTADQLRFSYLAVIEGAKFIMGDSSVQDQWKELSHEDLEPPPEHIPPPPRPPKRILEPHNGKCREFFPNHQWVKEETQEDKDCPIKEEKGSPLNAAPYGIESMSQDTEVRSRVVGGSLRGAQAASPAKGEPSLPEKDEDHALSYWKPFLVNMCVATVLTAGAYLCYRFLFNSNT

[5] = target: T3, Receptor-type tyrosine-protein phosphatase S (Homo sapiens, UniProt Q13332); experiment: Inhibition of GST-tagged PTP-sigma (unknown origin) at 10 uM by plate reader analysis using DiFMUP as substrate
T3 sequence (Q13332 whole entry): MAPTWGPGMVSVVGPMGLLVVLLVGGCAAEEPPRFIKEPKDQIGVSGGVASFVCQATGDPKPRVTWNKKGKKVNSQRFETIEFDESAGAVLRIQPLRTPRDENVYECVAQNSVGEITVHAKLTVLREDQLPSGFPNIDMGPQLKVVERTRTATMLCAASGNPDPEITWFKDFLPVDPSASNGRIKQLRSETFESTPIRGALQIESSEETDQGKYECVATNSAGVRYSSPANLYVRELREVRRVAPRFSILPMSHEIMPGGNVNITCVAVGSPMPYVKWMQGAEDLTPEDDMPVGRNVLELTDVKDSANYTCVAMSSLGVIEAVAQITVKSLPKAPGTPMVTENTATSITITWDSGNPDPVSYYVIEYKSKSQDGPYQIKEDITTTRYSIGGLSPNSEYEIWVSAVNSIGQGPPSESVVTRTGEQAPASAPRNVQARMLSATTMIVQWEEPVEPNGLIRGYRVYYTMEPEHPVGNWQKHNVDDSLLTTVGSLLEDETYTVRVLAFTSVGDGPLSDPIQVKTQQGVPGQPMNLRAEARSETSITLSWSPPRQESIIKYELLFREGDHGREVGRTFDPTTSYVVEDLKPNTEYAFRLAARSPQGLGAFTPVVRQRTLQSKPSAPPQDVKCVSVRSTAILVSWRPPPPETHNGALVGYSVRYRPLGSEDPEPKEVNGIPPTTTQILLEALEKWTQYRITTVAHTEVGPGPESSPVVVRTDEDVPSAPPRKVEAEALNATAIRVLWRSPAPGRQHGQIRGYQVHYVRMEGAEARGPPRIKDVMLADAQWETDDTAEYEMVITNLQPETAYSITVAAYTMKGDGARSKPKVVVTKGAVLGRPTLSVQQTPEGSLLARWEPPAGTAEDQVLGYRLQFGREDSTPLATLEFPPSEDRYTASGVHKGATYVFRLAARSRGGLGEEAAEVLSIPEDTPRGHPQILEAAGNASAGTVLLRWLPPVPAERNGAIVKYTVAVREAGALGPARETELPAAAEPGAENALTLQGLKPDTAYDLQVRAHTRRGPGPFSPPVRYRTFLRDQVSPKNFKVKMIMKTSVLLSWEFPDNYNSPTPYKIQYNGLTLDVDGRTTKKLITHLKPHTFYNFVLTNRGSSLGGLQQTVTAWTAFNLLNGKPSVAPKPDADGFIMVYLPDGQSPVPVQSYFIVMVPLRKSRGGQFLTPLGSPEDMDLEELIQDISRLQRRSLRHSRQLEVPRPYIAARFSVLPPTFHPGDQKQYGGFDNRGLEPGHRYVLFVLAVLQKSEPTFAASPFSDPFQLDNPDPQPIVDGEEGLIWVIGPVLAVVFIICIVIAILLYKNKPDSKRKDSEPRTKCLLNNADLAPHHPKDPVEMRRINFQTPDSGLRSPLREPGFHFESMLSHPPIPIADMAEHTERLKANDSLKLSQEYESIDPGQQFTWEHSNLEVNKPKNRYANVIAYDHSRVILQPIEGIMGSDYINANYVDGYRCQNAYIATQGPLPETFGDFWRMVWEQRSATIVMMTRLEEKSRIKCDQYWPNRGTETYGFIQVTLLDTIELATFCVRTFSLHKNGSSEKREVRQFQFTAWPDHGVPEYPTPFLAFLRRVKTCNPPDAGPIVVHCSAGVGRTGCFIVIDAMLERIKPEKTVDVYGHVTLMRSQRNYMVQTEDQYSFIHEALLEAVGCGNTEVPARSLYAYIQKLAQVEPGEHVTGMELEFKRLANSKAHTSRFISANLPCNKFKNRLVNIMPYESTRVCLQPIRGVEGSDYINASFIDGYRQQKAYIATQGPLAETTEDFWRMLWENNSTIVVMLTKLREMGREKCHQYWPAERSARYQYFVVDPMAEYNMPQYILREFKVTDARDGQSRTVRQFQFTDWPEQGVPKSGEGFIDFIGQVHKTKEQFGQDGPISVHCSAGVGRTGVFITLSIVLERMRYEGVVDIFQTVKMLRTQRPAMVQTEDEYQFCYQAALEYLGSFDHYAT

Homo sapiens [6] = organism: Homo sapiens; experiment: Inhibition of GST-tagged PRL2 A/S mutant (unknown origin) at 10 uM by plate reader analysis using DiFMUP as substrate
[7] = target: Receptor-type tyrosine-protein phosphatase F (Homo sapiens) (UniProt P10586); experiment: Inhibition of GST-tagged LAR (unknown origin) at 10 uM by plate reader analysis using DiFMUP as substrate
Receptor-type tyrosine-protein phosphatase F (Homo sapiens), sequence (P10586 whole entry): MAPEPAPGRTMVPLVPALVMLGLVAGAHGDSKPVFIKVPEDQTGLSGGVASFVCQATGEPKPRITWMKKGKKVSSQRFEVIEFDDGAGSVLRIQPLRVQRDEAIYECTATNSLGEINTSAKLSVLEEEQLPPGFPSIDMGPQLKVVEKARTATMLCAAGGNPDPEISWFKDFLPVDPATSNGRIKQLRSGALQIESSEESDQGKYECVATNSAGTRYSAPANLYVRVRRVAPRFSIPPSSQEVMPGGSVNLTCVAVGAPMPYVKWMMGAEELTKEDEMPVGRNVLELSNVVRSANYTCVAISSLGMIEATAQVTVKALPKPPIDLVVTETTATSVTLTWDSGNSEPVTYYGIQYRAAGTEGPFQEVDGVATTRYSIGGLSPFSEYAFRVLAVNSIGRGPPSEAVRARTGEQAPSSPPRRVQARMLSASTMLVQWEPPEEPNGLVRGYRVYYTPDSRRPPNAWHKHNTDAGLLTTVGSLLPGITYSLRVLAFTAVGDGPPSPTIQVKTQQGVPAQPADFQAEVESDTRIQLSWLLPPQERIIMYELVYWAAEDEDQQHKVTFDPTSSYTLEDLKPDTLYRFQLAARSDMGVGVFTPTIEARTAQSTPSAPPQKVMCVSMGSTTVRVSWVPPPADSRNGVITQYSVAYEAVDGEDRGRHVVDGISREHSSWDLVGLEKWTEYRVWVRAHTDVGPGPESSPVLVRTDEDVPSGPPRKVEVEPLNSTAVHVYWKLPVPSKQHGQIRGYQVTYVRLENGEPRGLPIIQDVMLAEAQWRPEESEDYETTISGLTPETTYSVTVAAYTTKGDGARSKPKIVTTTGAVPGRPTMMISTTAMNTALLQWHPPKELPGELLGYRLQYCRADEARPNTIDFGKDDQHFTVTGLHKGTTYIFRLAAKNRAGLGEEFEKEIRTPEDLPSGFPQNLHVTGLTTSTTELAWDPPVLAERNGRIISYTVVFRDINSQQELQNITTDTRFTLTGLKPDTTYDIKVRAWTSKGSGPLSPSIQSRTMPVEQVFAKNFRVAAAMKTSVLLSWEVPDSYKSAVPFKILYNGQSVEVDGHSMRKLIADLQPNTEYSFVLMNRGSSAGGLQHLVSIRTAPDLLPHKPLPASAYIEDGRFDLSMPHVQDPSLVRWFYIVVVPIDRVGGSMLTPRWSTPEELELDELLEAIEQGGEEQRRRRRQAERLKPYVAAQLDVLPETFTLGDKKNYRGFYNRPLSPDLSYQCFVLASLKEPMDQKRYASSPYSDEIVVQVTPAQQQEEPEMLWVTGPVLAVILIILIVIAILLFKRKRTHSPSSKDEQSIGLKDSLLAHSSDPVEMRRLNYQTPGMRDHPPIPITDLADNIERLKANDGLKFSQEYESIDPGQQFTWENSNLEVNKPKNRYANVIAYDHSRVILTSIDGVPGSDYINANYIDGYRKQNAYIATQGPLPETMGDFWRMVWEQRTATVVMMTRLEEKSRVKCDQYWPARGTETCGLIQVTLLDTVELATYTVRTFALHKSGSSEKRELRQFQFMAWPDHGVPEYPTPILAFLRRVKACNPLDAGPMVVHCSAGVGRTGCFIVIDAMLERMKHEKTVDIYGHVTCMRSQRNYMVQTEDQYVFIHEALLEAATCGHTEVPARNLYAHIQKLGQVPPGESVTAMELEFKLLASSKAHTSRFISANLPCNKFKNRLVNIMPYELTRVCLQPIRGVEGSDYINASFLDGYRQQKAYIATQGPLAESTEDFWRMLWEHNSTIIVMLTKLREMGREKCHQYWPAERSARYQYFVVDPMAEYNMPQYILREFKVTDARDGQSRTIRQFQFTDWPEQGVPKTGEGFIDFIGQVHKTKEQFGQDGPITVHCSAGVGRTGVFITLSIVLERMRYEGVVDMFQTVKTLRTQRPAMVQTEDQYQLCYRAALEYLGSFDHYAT

[8] = target: T4, Dual specificity protein phosphatase 22 (Homo sapiens) (UniProt Q9NRW4); experiment: Inhibition of GST-tagged MKPX (unknown origin) at 10 uM by plate reader analysis using DiFMUP as substrate
T4 sequence (whole entry): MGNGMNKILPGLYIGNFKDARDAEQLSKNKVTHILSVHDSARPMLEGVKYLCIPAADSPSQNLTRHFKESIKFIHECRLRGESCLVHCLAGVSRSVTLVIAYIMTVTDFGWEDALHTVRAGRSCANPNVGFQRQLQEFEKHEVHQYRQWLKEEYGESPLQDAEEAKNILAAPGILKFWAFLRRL

[9] = target: T5, Receptor-type tyrosine-protein phosphatase C (Homo sapiens) (UniProt P08575); experiment: Inhibition of GST-tagged CD45 D1D2 domain (unknown origin) at 10 uM by plate reader analysis using DiFMUP as substrate
T5 sequence (whole entry): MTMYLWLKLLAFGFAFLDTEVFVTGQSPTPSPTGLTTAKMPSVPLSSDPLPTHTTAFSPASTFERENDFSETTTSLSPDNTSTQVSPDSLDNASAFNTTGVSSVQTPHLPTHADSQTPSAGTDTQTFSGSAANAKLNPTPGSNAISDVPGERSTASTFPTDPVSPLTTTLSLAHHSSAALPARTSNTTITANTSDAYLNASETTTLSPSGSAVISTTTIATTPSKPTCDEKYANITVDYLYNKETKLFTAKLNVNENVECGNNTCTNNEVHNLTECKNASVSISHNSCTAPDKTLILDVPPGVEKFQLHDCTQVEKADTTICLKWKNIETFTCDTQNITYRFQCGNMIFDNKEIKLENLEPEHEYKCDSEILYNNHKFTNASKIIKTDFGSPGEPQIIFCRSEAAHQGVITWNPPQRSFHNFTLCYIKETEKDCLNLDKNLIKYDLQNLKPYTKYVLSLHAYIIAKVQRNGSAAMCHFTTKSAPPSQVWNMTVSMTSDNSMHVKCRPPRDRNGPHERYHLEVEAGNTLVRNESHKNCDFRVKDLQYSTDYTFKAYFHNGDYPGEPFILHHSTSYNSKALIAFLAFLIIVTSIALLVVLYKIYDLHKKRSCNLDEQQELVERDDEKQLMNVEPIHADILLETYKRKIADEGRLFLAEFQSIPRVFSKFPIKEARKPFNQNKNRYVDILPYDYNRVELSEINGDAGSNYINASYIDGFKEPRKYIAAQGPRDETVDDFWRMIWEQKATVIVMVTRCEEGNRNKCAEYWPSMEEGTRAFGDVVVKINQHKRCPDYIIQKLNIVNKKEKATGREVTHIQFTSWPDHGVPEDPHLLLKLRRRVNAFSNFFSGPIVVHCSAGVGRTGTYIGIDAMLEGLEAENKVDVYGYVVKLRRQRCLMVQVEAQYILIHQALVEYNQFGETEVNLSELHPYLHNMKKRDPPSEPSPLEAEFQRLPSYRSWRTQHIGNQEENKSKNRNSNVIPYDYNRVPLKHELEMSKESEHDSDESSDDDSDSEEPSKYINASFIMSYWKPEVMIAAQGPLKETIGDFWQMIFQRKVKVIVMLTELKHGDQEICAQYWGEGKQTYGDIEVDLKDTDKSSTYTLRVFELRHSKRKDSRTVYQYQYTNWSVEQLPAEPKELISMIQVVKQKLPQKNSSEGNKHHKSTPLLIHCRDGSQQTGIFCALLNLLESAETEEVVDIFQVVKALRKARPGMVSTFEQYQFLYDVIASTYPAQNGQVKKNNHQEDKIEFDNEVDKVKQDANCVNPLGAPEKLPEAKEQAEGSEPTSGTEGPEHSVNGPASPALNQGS

[10] = target: T6, Tyrosine-protein phosphatase non-receptor type 1 (Homo sapiens, UniProt P18031); experiment: Inhibition of GST-tagged PTP1B (unknown origin) by plate reader analysis using DiFMUP as substrate
T6 sequence (P18031 whole entry): T2 sequence (whole entry)

[11] = target: T3, Receptor-type tyrosine-protein phosphatase S; experiment: Inhibition of GST-tagged PTP-sigma (unknown origin) by plate reader analysis using DiFMUP as substrate
Homo sapiens [12] = organism: Homo sapiens; experiment: Selectivity ratio, ratio of IC50 for PTP sigma (unknown origin) to IC50 for PTP1B (unknown origin)
[13] = target: T6, Tyrosine-protein phosphatase non-receptor type 1; experiment: Competitive inhibition of GST-tagged PTP1B (unknown origin) by plate reader analysis using DiFMUP as substrate
Homo sapiens [14] = organism: Homo sapiens; experiment: Selectivity ratio, ratio of IC50 for PTP1B (unknown origin) to IC50 for PTP sigma (unknown origin)
CHO [15] = experiment: Inhibition of PTP1B in CHO cells assessed as increase in phosphorylation of transfected human insulin receptor at 50 uM by western blot analysis; format: cell-based; settings: Cricetulus griseus
[16] = target: Receptor-type tyrosine-protein phosphatase F (Homo sapiens) (UniProt P10586); experiment: Inhibition of GST-tagged LAR (unknown origin) by plate reader analysis using DiFMUP as substrate
Homo sapiens [17] = organism: Homo sapiens; experiment: Inhibition of GST-tagged PRL2 A/S mutant (unknown origin) by plate reader analysis using DiFMUP as substrate
[18] = target: T4, Dual specificity protein phosphatase 22 (Homo sapiens); experiment: Inhibition of GST-tagged MKPX (unknown origin) by plate reader analysis using DiFMUP as substrate
Papain (Carica papaya) = target: T7, Papain (Carica papaya) (UniProt P00784); experiment: Inhibition of papaya papain by plate reader analysis using Z-Phe-Arg-pNA substrate
T7 sequence (whole entry): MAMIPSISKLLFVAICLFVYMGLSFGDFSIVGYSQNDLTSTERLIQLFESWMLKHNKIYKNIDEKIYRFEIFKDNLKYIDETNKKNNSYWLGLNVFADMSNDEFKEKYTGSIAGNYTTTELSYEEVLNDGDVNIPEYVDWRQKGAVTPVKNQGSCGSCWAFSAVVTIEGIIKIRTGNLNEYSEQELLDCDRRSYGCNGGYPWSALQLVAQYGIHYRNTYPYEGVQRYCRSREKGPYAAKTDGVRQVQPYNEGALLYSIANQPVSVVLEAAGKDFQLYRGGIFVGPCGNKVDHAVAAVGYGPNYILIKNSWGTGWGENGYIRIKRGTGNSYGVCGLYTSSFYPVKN

inhibition [3] [%] | inhibition [4] [%] | inhibition [5] [%] | inhibition (Homo sapiens [6]) | inhibition [7] | inhibition [8] | inhibition [9] | IC50 [10] [nM] | IC50 [11] [µM] | Ratio IC50 (Homo sapiens [12]) | Ki [13] [µM] | Ratio IC50 (Homo sapiens [14]) | inhibition [16] | inhibition (Homo sapiens [17]) | inhibition [18] | inhibition (Papain (Carica papaya)) | Molecule | Activity (CHO [1]) | Activity (CHO [2]) | Activity (CHO [15])
> 90 | > 90 | > 90 | inactive | inactive | inactive | inactive | 1700 | 7.9 | 4 | – | – | – | – | – | – | O=C(CCCn1cc(CN(CC(=O)N(Cc2ccc(C3CCCCC3)cc2)c2ccc(C(=O)O)c(O)c2)S(=O)(=O)c2cccc3cccnc23)nn1)Nc1ccc(C(=O)O)c(O)c1 | Non-toxic | Dose-dependent effect | –
> 90 | > 90 | > 90 | inactive | inactive | inactive | inactive | 6100 | 11.8 | – | – | – | – | – | – | – | O=C(CCn1cc(CN(CC(=O)N(Cc2ccc(C3CCCCC3)cc2)c2ccc(C(=O)O)c(O)c2)S(=O)(=O)c2cccc3cccnc23)nn1)Nc1ccc(C(=O)O)c(O)c1 | – | – | –
> 90 | > 90 | > 90 | inactive | inactive | inactive | inactive | 3600 | 15.6 | – | 1.83 | – | – | – | – | – | O=C(Cn1cc(CN(CC(=O)N(Cc2ccc(C3CCCCC3)cc2)c2ccc(C(=O)O)c(O)c2)S(=O)(=O)c2cccc3cccnc23)nn1)Nc1ccc(C(=O)O)c(O)c1 | Non-toxic | Dose-dependent effect | –
> 90 | > 90 | > 90 | inactive | inactive | inactive | inactive | 2300 | 0.6 | – | – | 4 | – | – | – | – | O=C(CCCCn1cc(CN(CC(=O)N(Cc2ccc(C3CCCCC3)cc2)c2ccc(C(=O)O)c(O)c2)S(=O)(=O)c2cccc3cccnc23)nn1)Nc1ccc(C(=O)O)c(O)c1 | – | – | –
> 90 | > 90 | > 90 | inactive | inactive | inactive | inactive | 2400 | 0.9 | – | – | – | – | – | – | – | O=C(CCCCCn1cc(CN(CC(=O)N(Cc2ccc(C3CCCCC3)cc2)c2ccc(C(=O)O)c(O)c2)S(=O)(=O)c2cccc3cccnc23)nn1)Nc1ccc(C(=O)O)c(O)c1 | Non-toxic | Dose-dependent effect | –
– | – | – | – | – | – | – | – | – | – | – | – | – | – | – | – | VANADATE | – | – | Active
– | – | – | – | – | – | – | – | – | – | 5.66 | – | inactive | inactive | inactive | inactive | CN(CC(=O)N(Cc1ccc(C2CCCCC2)cc1)c1ccc(C(=O)O)c(O)c1)S(=O)(=O)c1cccc2cccnc12 | – | – | –
